Columns and labels:
[1] = tested on: NMDA-induced injury
Protocol: Intrastriatal injections of NMDA (15 nmol/0.5 μL) were performed in male and female Sprague-Dawley rat pups (Charles River Laboratory, Portage, Mich.) on Postnatal Day (PND) 7. The animals were anesthetized with ether, and the calvarium was exposed by a midline incision through the skin. The rat pups were placed in a plaster of paris mold that was secured to a small animal stereotaxic instrument (Kopf Instruments). NMDA (Sigma) was dissolved in 0.1 M phosphate-buffered saline (PBS) adjusted to pH 7.4 with 1 N NaOH. Injections of NMDA ([…]) were placed in the middle of the right posterior corpus striatum (coordinates relative to Bregma; AP -2.0 mm, ML 2.5 mm, at a depth of 4.0 mm from the dura) with a 26-gauge Hamilton syringe. The syringe was left in place for 2 minutes following the injections to limit leakage. Temperature of the animals was kept constant after surgery in a thermostatically controlled environment (HovaBator chick incubator; BFG Corp., Savannah, Ga.) set at 35° C. to 36° C. for 1 hour after the last drug or vehicle injection. Drug solutions were prepared in PBS and injected intraperitoneally (0.05 mL volume) 15 minutes, and 2.25 hours after intrastriatal injection of NMDA. Control animals received equal volumes of PBS.
After surgery, all animals were returned to the mothers for 5 days, and decapitated on PND 12. The brains were removed, the cerebral hemispheres were separated, and wet weights of each hemisphere were determined individually. Differences of the hemispheric weights were compared for each animal using the formula: 100×(C-I/C)=percent damage, a value that indicates the severity of damage of the injected (I) cerebral hemisphere relative to that of the uninjected contralateral (C) hemisphere. Percent protection is used to indicate the relative protection of the neuroprotective compound compared to the control and was calculated as: 100×[1-(% damagetreated /% damagecontrol)]. Data were expressed as mean percent damage±S.E.M. in all groups. Independent t-tests were used for statistical comparisons.

[2] = tested on: canine leptomeningeal smooth muscle cells; test: Amyloid β-peptide-induced cytotoxicity in canine leptomeningeal smooth muscle cells; type: cell-based, dog
Description: Canine smooth muscle cells were isolated from freshly obtained old dog meninges. […] Old dogs have an angiopathy resembling the human condition. Smooth muscle cells are the site of cerebral vessel myopathy occurring in the Dutch form of Alzheimer's disease. The compromise of these cells ultimately leads to a cerebrovascular accident and the death of some humans.
Cells from the meninges were dissociated and kept in culture in 10% fetal calf serum and Dulbecco's minimal essential media with antibiotics for about 1 week on tissue culture plates before use in biochemical studies or transferal to uncoated microscope slides for morphological studies. These smooth muscle cells represent brain blood vessel cells and they can be passaged several times. For inducing cytotoxicity, the cells were treated, in serum-free media, with 10 to 20 μM of amyloid β-peptide that was 42 amino acids long. This peptide corresponds to the human β-peptide sequence. The peptide was dissolved in water immediately before use. This small amount of protein is believed to approximate the concentration of protein observed in postmortem samples in the brains of people who died with Alzheimer's dementia.
Percentages were determined by counting normal and apoptotic nuclei in three fields with five independent measures in a fluorescence microscope.

[3] = tested on: cyclooxygenase; details: described in U.S. Pat. No. 5,143,928; cited from earlier work
[4] = tested on: 5-lipoxygenase; details: described in U.S. Pat. No. 5,143,928; cited from earlier work

CN[C@H](CC(=O)O)C(=O)O [NMDA, N-methyl-D-aspartate, reference compound]
reduction in wet weight of the ipsilateral cerebral hemisphere ([1]; NMDA 15 nmol/0.5 μL injected into posterior striatum, i.p. PBS, N=10): 20.6±1.8%

COc1ccc2c(c1)c(CC(=O)O)c(C)n2C(=O)c1ccc(Cl)cc1 [indomethacin, reference compound]
protection compared with the thiazolidinone ([1]; 2×30 mg/kg, versus thiazolidinone 2×30 mg/kg): comparable

human protein sequence: amyloid β-peptide that was 42 amino acids long; corresponds to the human β-peptide sequence [reference compound]
earliest statistically significant cytotoxicity ([2]; 10 to 20 μM amyloid β-peptide): 24 h
smooth muscle cells killed apoptotically ([2]; 10 to 20 μM, 1-week period, serum-free media, Hoechst 33258, 10080 min): 70% to 85

CC(C)(C)c1cc(C=C2SC(=N)NC2=O)cc(C(C)(C)C)c1O [5-[[3,5-bis-(1,1-dimethylethyl)-4-hydroxyphenyl]methylene]-2-imino-4-thiazolidinone]
inhibition of cyclooxygenase activity [3]: inhibits the activities of both cyclooxygenase and 5-lipoxygenase
inhibition of 5-lipoxygenase activity [4]: inhibits the activities of both cyclooxygenase and 5-lipoxygenase

Reference: patent publication US5912259A, “Method for treating and preventing neurodegenerative disorders by administering a thiazolidinone” (Warner-Lambert Company, priority 1998, dated 1999)
